Experimental data: ChEMBL document CHEMBL5465560, “Selectivity Literature for EUbOPEN Chemogenomic Library” (2024)
Values belong to the molecule of their own block, whether it stands above or below them.

How the values were obtained:
[1] = molecular target: T1, Cyclin-G-associated kinase (Homo sapiens) (UniProt O14976); experiment: Selectivity interaction (LanthaScreen Eu Kinase Binding Assay) EUB0001632a GAK; conditions: at 10 µM
T1 sequence (whole entry): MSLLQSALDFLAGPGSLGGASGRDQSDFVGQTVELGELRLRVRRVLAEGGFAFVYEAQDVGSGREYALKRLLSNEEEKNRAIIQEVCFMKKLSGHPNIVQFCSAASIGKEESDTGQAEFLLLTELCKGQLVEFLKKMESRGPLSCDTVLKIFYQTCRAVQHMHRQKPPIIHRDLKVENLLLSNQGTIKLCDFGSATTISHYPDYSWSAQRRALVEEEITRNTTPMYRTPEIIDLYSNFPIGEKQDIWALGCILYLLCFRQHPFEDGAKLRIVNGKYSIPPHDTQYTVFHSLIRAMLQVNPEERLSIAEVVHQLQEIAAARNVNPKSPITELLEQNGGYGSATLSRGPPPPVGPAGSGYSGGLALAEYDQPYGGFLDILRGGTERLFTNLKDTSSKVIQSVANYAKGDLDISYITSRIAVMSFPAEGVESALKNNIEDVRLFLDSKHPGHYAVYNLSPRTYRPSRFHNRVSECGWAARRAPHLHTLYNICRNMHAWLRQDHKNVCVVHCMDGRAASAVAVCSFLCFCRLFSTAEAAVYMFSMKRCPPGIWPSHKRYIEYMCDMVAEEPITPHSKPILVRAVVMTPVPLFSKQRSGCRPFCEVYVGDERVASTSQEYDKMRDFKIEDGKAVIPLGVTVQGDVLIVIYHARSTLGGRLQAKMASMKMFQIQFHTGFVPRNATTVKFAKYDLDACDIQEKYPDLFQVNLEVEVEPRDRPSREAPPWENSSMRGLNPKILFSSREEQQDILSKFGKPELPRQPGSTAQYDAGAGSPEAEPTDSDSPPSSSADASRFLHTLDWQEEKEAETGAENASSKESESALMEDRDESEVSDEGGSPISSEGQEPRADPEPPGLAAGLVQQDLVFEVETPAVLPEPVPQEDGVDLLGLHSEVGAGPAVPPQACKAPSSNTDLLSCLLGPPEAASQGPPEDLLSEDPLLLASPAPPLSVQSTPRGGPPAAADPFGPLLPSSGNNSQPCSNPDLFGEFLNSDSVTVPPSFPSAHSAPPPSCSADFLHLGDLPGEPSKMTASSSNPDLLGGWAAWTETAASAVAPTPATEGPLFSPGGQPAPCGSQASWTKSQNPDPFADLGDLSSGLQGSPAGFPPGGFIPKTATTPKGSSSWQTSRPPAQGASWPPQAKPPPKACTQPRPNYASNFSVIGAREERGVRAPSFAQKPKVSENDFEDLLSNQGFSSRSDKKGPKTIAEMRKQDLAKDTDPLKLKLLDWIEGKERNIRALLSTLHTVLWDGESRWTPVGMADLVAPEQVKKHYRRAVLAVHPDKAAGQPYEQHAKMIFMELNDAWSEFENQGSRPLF

[2] = molecular target: Cyclin-dependent kinase-like 1 (Homo sapiens) (UniProt Q00532); experiment: Selectivity interaction (KinomeScan (DiscoverX)) EUB0000607a CDKL1; conditions: at 10 µM
[3] = molecular target: Vascular endothelial growth factor receptor 3 (Homo sapiens, UniProt P35916); experiment: Selectivity interaction (Upstate Kinase Profiler service (Millipore)) EUB0000056c FLT4; conditions: at 1 µM
[4] = molecular target: Calcium/calmodulin-dependent protein kinase kinase 2 (Homo sapiens) (UniProt Q96RR4); experiment: Selectivity interaction (ActivX KiNativ screen (kinase selectivity in THP-1 cell lysates)) EUB0000639a CAMKK2; type: subcellular; conditions: lysate, at 1 µM
[5] = molecular target: Insulin-like growth factor 1 receptor (Homo sapiens, UniProt P08069); experiment: Selectivity interaction (KinomeScan (DiscoverX)) EUB0001049a IGF1R; conditions: at 1 µM
[6] = molecular target: 5-hydroxytryptamine receptor 1B (Homo sapiens) (UniProt P28222); experiment: Selectivity interaction (GPCR panel (PDSP screen)) EUB0001079a HTR1B; conditions: at 10 µM
[7] = molecular target: T2, Mitogen-activated protein kinase kinase kinase kinase 3 (Homo sapiens) (UniProt Q8IVH8); experiment: Selectivity interaction (KinomeScan (DiscoverX)) EUB0000618a MAP4K3; conditions: at 10 µM
T2 sequence (whole entry): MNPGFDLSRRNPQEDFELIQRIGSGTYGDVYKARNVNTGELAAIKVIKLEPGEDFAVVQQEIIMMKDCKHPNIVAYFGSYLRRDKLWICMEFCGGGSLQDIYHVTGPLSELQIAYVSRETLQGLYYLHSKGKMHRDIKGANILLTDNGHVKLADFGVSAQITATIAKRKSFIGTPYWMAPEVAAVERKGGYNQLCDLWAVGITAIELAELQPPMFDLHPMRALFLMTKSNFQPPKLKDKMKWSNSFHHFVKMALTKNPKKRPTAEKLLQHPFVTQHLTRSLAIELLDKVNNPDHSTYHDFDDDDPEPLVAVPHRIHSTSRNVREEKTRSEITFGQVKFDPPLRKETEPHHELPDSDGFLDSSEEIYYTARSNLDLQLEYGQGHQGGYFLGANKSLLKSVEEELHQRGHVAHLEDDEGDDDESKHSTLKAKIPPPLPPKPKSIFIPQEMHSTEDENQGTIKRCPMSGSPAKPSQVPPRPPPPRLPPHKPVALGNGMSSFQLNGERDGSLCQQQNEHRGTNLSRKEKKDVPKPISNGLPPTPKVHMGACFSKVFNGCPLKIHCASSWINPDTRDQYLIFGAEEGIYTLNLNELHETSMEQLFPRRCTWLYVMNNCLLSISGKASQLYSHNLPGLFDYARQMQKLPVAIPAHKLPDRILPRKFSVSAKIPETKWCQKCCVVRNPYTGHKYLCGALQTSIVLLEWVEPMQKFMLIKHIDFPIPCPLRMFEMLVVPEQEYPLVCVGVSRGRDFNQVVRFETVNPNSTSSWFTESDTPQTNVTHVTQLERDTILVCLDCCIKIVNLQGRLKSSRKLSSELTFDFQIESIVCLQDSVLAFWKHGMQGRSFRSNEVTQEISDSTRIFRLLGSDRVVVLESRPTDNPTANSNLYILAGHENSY

[8] = molecular target: Dual specificity protein kinase CLK1 (Homo sapiens, UniProt P49759); experiment: Selectivity interaction (KinomeScan (DiscoverX)) EUB0000618a CLK1; conditions: at 10 µM
Chain of Dual specificity protein kinase CLK1 (P49759 whole entry, looked up): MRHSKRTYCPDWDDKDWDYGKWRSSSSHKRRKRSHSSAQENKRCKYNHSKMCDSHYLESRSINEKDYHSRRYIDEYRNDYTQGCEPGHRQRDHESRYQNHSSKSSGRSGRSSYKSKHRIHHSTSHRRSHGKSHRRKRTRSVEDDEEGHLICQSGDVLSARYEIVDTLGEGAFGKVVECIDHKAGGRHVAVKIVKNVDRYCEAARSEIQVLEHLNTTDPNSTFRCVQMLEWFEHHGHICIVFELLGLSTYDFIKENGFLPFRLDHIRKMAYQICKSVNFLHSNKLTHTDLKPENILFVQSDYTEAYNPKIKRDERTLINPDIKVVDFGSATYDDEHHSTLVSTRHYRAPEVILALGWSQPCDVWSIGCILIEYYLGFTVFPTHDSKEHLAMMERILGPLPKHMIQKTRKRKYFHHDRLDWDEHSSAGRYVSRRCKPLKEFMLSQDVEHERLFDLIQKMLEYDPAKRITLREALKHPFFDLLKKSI

Chain of 5-hydroxytryptamine receptor 1B (Homo sapiens) (P28222 whole entry): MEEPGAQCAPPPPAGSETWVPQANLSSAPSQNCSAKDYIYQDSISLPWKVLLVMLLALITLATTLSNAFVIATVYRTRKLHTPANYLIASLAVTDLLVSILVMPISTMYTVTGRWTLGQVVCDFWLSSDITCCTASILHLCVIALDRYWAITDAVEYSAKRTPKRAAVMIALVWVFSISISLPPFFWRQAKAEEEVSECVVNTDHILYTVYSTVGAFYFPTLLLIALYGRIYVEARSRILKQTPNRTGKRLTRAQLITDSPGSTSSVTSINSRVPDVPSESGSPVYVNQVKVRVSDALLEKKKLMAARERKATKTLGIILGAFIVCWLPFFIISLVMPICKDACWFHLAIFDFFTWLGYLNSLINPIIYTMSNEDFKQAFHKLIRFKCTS
Chain of Vascular endothelial growth factor receptor 3 (P35916 whole entry): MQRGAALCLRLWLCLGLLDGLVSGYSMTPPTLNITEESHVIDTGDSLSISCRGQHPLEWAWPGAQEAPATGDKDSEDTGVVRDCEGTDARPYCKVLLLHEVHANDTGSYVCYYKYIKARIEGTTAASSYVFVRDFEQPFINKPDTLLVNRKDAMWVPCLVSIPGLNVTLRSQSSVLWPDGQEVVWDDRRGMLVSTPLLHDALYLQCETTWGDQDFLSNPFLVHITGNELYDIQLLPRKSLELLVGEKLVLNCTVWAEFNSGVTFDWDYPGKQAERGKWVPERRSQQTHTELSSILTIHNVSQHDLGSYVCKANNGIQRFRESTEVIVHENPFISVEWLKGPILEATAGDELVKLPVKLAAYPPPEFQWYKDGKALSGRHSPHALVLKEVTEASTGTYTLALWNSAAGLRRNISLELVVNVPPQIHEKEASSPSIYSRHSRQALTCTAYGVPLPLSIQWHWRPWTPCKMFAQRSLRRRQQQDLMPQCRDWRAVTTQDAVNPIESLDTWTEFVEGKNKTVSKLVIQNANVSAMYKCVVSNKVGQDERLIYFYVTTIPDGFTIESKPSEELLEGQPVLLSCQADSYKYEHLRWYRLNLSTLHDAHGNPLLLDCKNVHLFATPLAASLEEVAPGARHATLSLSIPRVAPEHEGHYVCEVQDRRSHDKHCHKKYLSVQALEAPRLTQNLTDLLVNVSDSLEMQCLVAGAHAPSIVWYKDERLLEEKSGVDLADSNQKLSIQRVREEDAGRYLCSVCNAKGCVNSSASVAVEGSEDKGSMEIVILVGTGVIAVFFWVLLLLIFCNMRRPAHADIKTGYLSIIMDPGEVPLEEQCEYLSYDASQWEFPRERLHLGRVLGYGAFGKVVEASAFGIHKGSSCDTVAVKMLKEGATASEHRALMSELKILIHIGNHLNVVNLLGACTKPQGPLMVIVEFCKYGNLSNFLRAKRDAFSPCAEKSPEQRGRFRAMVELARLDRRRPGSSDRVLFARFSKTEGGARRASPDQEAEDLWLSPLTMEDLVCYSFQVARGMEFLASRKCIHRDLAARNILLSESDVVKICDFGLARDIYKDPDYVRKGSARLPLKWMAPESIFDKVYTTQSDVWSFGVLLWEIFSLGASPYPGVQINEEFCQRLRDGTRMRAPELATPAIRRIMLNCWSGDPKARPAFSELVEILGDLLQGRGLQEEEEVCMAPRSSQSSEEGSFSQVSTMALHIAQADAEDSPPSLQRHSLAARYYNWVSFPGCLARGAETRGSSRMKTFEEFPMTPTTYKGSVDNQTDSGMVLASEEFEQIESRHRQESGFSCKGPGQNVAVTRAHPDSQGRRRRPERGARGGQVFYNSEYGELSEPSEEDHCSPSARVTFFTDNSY
Chain of Insulin-like growth factor 1 receptor (P08069 31-736 limits assumed): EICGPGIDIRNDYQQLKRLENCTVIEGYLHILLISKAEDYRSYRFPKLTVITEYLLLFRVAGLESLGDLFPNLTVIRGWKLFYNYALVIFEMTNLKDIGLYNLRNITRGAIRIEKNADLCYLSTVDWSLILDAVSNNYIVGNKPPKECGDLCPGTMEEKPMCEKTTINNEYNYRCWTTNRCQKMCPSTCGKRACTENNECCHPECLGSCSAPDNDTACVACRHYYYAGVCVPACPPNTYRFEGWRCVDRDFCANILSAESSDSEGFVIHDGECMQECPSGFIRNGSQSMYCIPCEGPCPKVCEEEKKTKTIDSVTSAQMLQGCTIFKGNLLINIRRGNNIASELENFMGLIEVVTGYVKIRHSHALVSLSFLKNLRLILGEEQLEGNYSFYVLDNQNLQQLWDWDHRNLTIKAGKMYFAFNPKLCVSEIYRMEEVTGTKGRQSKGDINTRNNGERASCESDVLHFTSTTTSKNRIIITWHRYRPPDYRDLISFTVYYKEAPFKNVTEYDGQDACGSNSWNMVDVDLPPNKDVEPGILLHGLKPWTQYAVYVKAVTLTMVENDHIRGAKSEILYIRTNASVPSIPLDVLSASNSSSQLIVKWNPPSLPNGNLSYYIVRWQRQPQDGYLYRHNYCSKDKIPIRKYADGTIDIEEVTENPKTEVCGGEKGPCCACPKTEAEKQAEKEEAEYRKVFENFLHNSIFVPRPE
Chain of Insulin-like growth factor 1 receptor (P08069 741-1367 limits assumed): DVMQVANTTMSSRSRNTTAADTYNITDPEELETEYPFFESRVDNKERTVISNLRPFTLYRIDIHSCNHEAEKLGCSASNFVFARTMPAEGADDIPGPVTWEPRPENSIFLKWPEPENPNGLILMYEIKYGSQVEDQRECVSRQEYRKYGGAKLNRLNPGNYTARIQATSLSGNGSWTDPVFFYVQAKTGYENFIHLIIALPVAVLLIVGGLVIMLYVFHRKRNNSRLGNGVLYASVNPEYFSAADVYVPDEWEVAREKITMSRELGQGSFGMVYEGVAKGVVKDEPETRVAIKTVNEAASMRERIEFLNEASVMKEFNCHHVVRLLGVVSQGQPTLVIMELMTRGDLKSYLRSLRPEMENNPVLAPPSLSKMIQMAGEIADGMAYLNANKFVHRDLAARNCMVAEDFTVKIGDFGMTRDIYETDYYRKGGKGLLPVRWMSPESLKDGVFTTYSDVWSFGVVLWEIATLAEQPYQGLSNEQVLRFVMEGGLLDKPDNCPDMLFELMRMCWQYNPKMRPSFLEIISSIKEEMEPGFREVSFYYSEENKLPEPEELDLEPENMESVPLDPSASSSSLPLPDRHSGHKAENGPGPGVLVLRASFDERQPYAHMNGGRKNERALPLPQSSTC
Chain of Calcium/calmodulin-dependent protein kinase kinase 2 (Homo sapiens) (Q96RR4 2-588 limits assumed): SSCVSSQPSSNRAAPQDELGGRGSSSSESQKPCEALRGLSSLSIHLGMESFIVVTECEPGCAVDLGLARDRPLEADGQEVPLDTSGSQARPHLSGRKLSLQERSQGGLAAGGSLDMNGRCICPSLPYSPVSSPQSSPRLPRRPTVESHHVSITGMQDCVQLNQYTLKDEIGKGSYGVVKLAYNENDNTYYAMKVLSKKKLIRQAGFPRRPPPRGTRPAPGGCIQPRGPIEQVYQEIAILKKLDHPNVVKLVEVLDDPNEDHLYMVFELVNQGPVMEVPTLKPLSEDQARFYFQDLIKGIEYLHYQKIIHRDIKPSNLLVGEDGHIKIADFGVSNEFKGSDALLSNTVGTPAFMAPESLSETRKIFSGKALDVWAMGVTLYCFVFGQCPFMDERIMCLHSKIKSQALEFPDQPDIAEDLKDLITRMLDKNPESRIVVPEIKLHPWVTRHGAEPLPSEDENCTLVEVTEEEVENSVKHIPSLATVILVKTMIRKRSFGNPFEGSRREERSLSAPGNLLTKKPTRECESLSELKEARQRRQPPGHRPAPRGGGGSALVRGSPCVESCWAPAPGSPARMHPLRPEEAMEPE
Chain of Cyclin-dependent kinase-like 1 (Homo sapiens) (Q00532 whole entry): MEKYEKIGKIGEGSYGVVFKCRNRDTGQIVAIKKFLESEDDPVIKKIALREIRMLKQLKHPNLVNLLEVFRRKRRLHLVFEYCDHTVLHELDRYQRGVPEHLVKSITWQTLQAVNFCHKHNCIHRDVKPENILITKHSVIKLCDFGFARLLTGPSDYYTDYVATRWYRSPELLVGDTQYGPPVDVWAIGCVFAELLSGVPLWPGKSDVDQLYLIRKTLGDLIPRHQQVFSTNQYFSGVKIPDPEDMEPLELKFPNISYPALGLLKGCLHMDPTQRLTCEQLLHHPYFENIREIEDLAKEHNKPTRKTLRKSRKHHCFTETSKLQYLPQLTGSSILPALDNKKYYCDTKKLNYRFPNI

% of inhibition [1]: -16.7%
SMILES: Cn1cc(-n2cnc3c(NCc4nc5cc(Cl)c(Cl)cc5[nH]4)nc(N4CCOCC4)nc32)cn1

SMILES: CNC(=O)Nc1ccc(-c2nc(N3CC4CCC(C3)O4)c3cnn(C4CCC5(CC4)OCCO5)c3n2)cc1
% of control [2]: 84%

% of inhibition [3]: 40%
SMILES: Cc1ccc(-c2ccc3c(ccc4sc5c(c43)NC[C@@H](C)NC5=O)n2)cn1

% of inhibition [4]: 12.1%
SMILES: CC[C@@H]1[C@H](F)C(=O)N[C@@H]1COc1nccc2cc(C(N)=O)c(OC)cc12 [ZIMLOVISERTIB]

SMILES: COc1cc(Nc2nc(C)cc(-c3cnn4nc(OC)ccc34)n2)cc(C(F)(F)F)c1
% of control [5]: 91%

SMILES: Nc1cnc(N2CCc3cc(S(=O)(=O)Nc4c(F)cc(Cl)cc4F)cc(N4CCCC4=O)c32)nc1 [TP-020n]
% of inhibition [6]: -3.82%

SMILES: O[C@H]1CC[C@H](Nc2ncc3nc(Nc4c(F)cc(F)cc4F)n([C@H]4CCOC4)c3n2)CC1
% of control [7]: 85% | % of control [8]: 79%
